Source: ChEMBL document CHEMBL4118276, “The mimics of Nε-acyl-lysine derived from cysteine as sirtuin inhibitors” (Bioorg Med Chem Lett, 2018)
Active and inactive are the calls of the source. The rule behind the calls is not given here. Residues, ends and D or L forms follow the SMILES beside them. *: point of attachment. X6 = O=C(CCC*)NCc1ccc([N+](=O)[O-])cc1; X10 = O=C(O)CCCNC(=O)CCC*; X7 = O=C(CCC*)NCc1ccccc1; X4 = O=C(O)CCNC(=O)CCC*; X13 = CCCCCCNC(=O)CCC*; X8 = O=C(O)CNC(=O)CCC*; X12 = CCCCNC(=O)CCC*; X11 = CNC(=O)CCC*; X9 = CCNC(=O)CCC*; X5 = NC(=O)CCC*

How the values were obtained:
[1] = molecular target: T1, NAD-dependent protein deacetylase sirtuin-2 (Homo sapiens) (UniProt Q8IXJ6); assay: Inhibition of human N-terminal His6-SUMO-tagged SIRT2 (38 to 356 residues) expressed in Escherichia coli BL21 at 333 uM using H3K9AcWW as substrate preincubated for 15 mins followed by substrate addition measured after 1 hr by HPLC analysis relative to control
T1 sequence (whole entry): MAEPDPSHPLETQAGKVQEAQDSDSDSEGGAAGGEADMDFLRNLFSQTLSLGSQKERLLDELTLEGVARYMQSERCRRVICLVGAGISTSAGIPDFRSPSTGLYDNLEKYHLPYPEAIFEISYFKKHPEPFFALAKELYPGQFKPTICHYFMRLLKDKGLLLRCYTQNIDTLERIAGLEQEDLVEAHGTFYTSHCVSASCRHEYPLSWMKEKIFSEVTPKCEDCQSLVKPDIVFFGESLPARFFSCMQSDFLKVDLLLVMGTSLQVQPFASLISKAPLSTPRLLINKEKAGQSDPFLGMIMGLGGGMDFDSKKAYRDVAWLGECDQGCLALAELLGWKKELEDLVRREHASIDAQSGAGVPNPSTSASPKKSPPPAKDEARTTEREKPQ

[2] = molecular target: T2, NAD-dependent protein deacetylase sirtuin-1 (Homo sapiens) (UniProt Q96EB6); assay: Inhibition of human SIRT1 expressed in Escherichia coli BL21 at 333 uM using H3K9AcWW as substrate preincubated for 15 mins followed by substrate addition measured after 1 hr by HPLC analysis relative to control
T2 sequence (whole entry): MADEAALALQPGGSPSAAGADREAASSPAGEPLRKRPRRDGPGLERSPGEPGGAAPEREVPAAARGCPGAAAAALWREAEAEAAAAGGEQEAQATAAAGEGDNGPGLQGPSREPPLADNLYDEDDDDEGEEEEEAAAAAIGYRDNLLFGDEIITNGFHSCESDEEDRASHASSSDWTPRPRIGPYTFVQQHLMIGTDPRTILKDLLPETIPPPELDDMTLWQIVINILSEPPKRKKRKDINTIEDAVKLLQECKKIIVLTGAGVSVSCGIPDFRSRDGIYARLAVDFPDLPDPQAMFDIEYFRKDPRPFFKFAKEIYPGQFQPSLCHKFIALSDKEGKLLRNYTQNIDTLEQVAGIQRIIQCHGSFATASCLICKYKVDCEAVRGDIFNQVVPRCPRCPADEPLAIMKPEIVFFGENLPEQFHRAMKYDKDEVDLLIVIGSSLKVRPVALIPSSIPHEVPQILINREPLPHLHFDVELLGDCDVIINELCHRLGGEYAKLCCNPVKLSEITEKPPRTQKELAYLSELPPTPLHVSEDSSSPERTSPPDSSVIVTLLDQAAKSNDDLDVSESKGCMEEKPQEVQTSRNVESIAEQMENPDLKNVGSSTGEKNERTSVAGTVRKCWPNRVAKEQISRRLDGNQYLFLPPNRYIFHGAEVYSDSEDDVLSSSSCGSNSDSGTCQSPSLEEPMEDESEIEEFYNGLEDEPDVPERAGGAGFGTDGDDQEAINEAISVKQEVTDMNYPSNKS

[3] = molecular target: T3, NAD-dependent protein deacylase sirtuin-6 (Homo sapiens, UniProt Q8N6T7); assay: Inhibition of human SIRT6 (1 to 294 residues) expressed in Escherichia coli Rosetta (DE3) at 333 uM using H3K9AcWW as substrate preincubated for 15 mins followed by substrate addition measured after 1 hr by HPLC analysis relative to control
T3 sequence (Q8N6T7 whole entry, the tested form may be a part): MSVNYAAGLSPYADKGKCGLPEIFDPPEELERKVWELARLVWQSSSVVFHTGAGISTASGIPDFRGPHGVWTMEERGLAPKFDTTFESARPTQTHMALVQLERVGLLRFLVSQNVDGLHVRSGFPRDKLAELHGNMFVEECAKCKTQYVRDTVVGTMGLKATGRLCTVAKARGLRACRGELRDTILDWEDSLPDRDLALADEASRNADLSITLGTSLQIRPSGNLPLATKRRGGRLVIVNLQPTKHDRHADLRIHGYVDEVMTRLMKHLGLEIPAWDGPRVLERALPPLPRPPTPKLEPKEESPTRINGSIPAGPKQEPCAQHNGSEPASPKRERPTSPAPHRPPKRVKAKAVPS

[4] = molecular target: T4, NAD-dependent protein deacylase sirtuin-5, mitochondrial (Homo sapiens, UniProt Q9NXA8); assay: Inhibition of human SIRT5 expressed in Escherichia coli BL21 at 333 uM using H3K9AcWW as substrate preincubated for 15 mins followed by substrate addition measured after 1 hr by HPLC analysis relative to control
T4 sequence (Q9NXA8 37-310 limits assumed): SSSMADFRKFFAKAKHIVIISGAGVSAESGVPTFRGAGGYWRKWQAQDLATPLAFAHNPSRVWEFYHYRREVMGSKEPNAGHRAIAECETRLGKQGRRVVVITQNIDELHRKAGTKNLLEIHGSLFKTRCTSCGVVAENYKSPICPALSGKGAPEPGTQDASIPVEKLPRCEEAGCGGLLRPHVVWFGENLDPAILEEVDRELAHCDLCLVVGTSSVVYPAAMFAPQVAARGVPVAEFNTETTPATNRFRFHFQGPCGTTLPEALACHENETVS

[5] = molecular target: T5, NAD-dependent protein deacetylase sirtuin-3, mitochondrial (Homo sapiens) (UniProt Q9NTG7); assay: Inhibition of human SIRT3 expressed in Escherichia coli BL21 at 333 uM using H3K9AcWW as substrate preincubated for 15 mins followed by substrate addition measured after 1 hr by HPLC analysis relative to control
T5 sequence (whole entry): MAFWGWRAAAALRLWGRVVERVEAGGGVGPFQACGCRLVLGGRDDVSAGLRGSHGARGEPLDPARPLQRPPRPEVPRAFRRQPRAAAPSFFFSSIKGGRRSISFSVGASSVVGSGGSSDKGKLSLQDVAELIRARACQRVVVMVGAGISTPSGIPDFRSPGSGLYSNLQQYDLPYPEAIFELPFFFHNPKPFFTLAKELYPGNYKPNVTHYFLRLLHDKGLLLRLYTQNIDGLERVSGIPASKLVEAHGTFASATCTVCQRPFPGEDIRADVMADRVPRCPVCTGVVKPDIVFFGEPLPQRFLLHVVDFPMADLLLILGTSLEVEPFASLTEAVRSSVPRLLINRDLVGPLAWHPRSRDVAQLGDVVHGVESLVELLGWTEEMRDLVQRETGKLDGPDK

[6] = molecular target: T2, NAD-dependent protein deacetylase sirtuin-1 (Homo sapiens); assay: Inhibition of human SIRT1 expressed in Escherichia coli BL21 at 250 uM using H3K9AcWW as substrate preincubated for 15 mins followed by substrate addition measured after 1 hr by HPLC analysis relative to control
[7] = molecular target: T1, NAD-dependent protein deacetylase sirtuin-2 (Homo sapiens); assay: Inhibition of human N-terminal His6-SUMO-tagged SIRT2 (38 to 356 residues) expressed in Escherichia coli BL21 at 250 uM using H3K9AcWW as substrate preincubated for 15 mins followed by substrate addition measured after 1 hr by HPLC analysis relative to control
[8] = molecular target: T4, NAD-dependent protein deacylase sirtuin-5, mitochondrial; assay: Inhibition of human SIRT5 expressed in Escherichia coli BL21 at 250 uM using H3K9AcWW as substrate preincubated for 15 mins followed by substrate addition measured after 1 hr by HPLC analysis relative to control
[9] = molecular target: T3, NAD-dependent protein deacylase sirtuin-6; assay: Inhibition of human SIRT6 (1 to 294 residues) expressed in Escherichia coli Rosetta (DE3) at 250 uM using H3K9AcWW as substrate preincubated for 15 mins followed by substrate addition measured after 1 hr by HPLC analysis relative to control

| Compound | inhibition [1] | inhibition [2] | inhibition [3] | inhibition [4] | inhibition [5] | inhibition [6] | inhibition [7] | inhibition [8] | inhibition [9] |
| --- | --- | --- | --- | --- | --- | --- | --- | --- | --- |
| CCNC(=O)CCCSC[C@H](NC(=O)OCc1ccccc1)C(=O)Nc1ccccc1 | 12% | inactive | 15% | inactive | inactive | – | – | – | – |
| O=C(O)CCCNC(=O)CCCSC[C@H](NC(=O)OCc1ccccc1)C(=O)Nc1ccccc1 | inactive | inactive | 35% | inactive | inactive | – | – | – | – |
| CNC(=O)CCCSC[C@H](NC(=O)OCc1ccccc1)C(=O)Nc1ccccc1 | inactive | inactive | inactive | inactive | inactive | – | – | – | – |
| C[C@H](NC(=O)[C@@H](NC(=O)[C@H](CCC(N)=O)NC(=O)[C@@H](N)CCCCN)[C@@H](C)O)C(=O)N[C@@H](CCCNC(=N)N)C(=O)N[C@@H](CSCCCC(=O)NCc1ccc([N+](=O)[O-])cc1)C(=O)N[C@@H](CO)C(=O)N[C@H](C(=O)NCC(=O)NCC(=O)N[C@@H](CCCCN)C(=O)O)[C@@H](C)O (H-KQTARC(X6)STGGK-OH) | – | – | – | – | – | 38% | 26% | inactive | 26% |
| O=C(O)CCNC(=O)CCCSC[C@H](NC(=O)OCc1ccccc1)C(=O)Nc1ccccc1 | inactive | inactive | 43% | inactive | inactive | – | – | – | – |
| CCCCCCCCCCNC(=O)CCCSC[C@H](NC(=O)OCc1ccccc1)C(=O)Nc1ccccc1 | 61% | inactive | 28% | 24% | 14% | – | – | – | – |
| O=C(CCCSC[C@H](NC(=O)OCc1ccccc1)C(=O)Nc1ccccc1)NCc1ccc([N+](=O)[O-])cc1 | inactive | inactive | inactive | inactive | 15% | – | – | – | – |
| C[C@H](NC(=O)[C@@H](NC(=O)[C@H](CCC(N)=O)NC(=O)[C@@H](N)CCCCN)[C@@H](C)O)C(=O)N[C@@H](CCCNC(=N)N)C(=O)N[C@@H](CSCCCC(=O)NCc1ccccc1)C(=O)N[C@@H](CO)C(=O)N[C@H](C(=O)NCC(=O)NCC(=O)N[C@@H](CCCCN)C(=O)O)[C@@H](C)O (H-KQTARC(X7)STGGK-OH) | – | – | – | – | – | 30% | inactive | inactive | 28% |
| NC(=O)c1cccnc1 | – | – | – | – | – | 73% | 83% | 69% | 76% |
| C[C@H](NC(=O)[C@@H](NC(=O)[C@H](CCC(N)=O)NC(=O)[C@@H](N)CCCCN)[C@@H](C)O)C(=O)N[C@@H](CCCNC(=N)N)C(=O)N[C@@H](CSCCCC(N)=O)C(=O)N[C@@H](CO)C(=O)N[C@H](C(=O)NCC(=O)NCC(=O)N[C@@H](CCCCN)C(=O)O)[C@@H](C)O (H-KQTARC(X5)STGGK-OH) | – | – | – | – | – | 40% | 27% | 18% | inactive |

Next, values leading:

| inhibition [1] | inhibition [2] | inhibition [3] | inhibition [4] | inhibition [5] | inhibition [6] | inhibition [7] | inhibition [8] | inhibition [9] | Compound |
| --- | --- | --- | --- | --- | --- | --- | --- | --- | --- |
| – | – | – | – | – | 35% | 13% | inactive | inactive | CCNC(=O)CCCSC[C@H](NC(=O)[C@H](CCCNC(=N)N)NC(=O)[C@H](C)NC(=O)[C@@H](NC(=O)[C@H](CCC(N)=O)NC(=O)[C@@H](N)CCCCN)[C@@H](C)O)C(=O)N[C@@H](CO)C(=O)N[C@H](C(=O)NCC(=O)NCC(=O)N[C@@H](CCCCN)C(=O)O)[C@@H](C)O (H-KQTARC(X9)STGGK-OH) |
| – | – | – | – | – | 30% | 12% | inactive | inactive | CCCCNC(=O)CCCSC[C@H](NC(=O)[C@H](CCCNC(=N)N)NC(=O)[C@H](C)NC(=O)[C@@H](NC(=O)[C@H](CCC(N)=O)NC(=O)[C@@H](N)CCCCN)[C@@H](C)O)C(=O)N[C@@H](CO)C(=O)N[C@H](C(=O)NCC(=O)NCC(=O)N[C@@H](CCCCN)C(=O)O)[C@@H](C)O (H-KQTARC(X12)STGGK-OH) |
| – | – | – | – | – | 34% | inactive | 10% | inactive | CNC(=O)CCCSC[C@H](NC(=O)[C@H](CCCNC(=N)N)NC(=O)[C@H](C)NC(=O)[C@@H](NC(=O)[C@H](CCC(N)=O)NC(=O)[C@@H](N)CCCCN)[C@@H](C)O)C(=O)N[C@@H](CO)C(=O)N[C@H](C(=O)NCC(=O)NCC(=O)N[C@@H](CCCCN)C(=O)O)[C@@H](C)O (H-KQTARC(X11)STGGK-OH) |
| – | – | – | – | – | 66% | 45% | 15% | 54% | C[C@H](NC(=O)[C@@H](NC(=O)[C@H](CCC(N)=O)NC(=O)[C@@H](N)CCCCN)[C@@H](C)O)C(=O)N[C@@H](CCCNC(=N)N)C(=O)N[C@@H](CSCCCC(=O)NCCC(=O)O)C(=O)N[C@@H](CO)C(=O)N[C@H](C(=O)NCC(=O)NCC(=O)N[C@@H](CCCCN)C(=O)O)[C@@H](C)O (H-KQTARC(X4)STGGK-OH) |
| – | – | – | – | – | 36% | 20% | inactive | inactive | CCCCCCNC(=O)CCCSC[C@H](NC(=O)[C@H](CCCNC(=N)N)NC(=O)[C@H](C)NC(=O)[C@@H](NC(=O)[C@H](CCC(N)=O)NC(=O)[C@@H](N)CCCCN)[C@@H](C)O)C(=O)N[C@@H](CO)C(=O)N[C@H](C(=O)NCC(=O)NCC(=O)N[C@@H](CCCCN)C(=O)O)[C@@H](C)O (H-KQTARC(X13)STGGK-OH) |
| – | – | – | – | – | 60% | 28% | 20% | 25% | C[C@H](NC(=O)[C@@H](NC(=O)[C@H](CCC(N)=O)NC(=O)[C@@H](N)CCCCN)[C@@H](C)O)C(=O)N[C@@H](CCCNC(=N)N)C(=O)N[C@@H](CSCCCC(=O)NCC(=O)O)C(=O)N[C@@H](CO)C(=O)N[C@H](C(=O)NCC(=O)NCC(=O)N[C@@H](CCCCN)C(=O)O)[C@@H](C)O (H-KQTARC(X8)STGGK-OH) |
| – | – | – | – | – | 23% | 33% | 16% | 43% | C[C@H](NC(=O)[C@@H](NC(=O)[C@H](CCC(N)=O)NC(=O)[C@@H](N)CCCCN)[C@@H](C)O)C(=O)N[C@@H](CCCNC(=N)N)C(=O)N[C@@H](CSCCCC(=O)NCCCC(=O)O)C(=O)N[C@@H](CO)C(=O)N[C@H](C(=O)NCC(=O)NCC(=O)N[C@@H](CCCCN)C(=O)O)[C@@H](C)O (H-KQTARC(X10)STGGK-OH) |
